Reference: US11096909B2, “Compounds for use in the treatment of cancer” (University of Oulu, priority 2016, dated 2021)

How the values were obtained:
ARTD3/PARP3 [1] = target: T1, ARTD3/PARP3 (Homo sapiens, UniProt Q9Y6F1); assay: Activity-based fluorescent assay, ARTD3; assay type: biochemical
T1 construct: made in house; host or cells: E. coli
T1 sequence (Q9Y6F1 1-533): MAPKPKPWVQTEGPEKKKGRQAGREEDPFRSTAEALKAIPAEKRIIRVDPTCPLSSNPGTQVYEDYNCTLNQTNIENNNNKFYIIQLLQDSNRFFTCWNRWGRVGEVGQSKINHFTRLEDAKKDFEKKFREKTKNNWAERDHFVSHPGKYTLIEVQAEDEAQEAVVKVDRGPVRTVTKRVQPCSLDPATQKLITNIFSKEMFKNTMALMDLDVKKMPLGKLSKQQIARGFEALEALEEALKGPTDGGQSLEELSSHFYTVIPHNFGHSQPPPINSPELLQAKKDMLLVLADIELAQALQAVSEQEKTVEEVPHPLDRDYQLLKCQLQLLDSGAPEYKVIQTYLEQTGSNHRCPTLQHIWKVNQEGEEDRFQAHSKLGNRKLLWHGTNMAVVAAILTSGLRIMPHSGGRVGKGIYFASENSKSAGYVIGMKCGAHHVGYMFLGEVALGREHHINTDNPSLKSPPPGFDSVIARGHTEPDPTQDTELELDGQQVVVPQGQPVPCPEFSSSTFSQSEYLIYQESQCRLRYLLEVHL

ARTD4/PARP4 [2] = target: T2, ARTD4/PARP4 (Homo sapiens, UniProt Q9UKK3); assay: Activity-based fluorescent assay, ARTD4; assay type: biochemical; design: made in house; host or cells: E. coli
T2 sequence (Q9UKK3 whole entry): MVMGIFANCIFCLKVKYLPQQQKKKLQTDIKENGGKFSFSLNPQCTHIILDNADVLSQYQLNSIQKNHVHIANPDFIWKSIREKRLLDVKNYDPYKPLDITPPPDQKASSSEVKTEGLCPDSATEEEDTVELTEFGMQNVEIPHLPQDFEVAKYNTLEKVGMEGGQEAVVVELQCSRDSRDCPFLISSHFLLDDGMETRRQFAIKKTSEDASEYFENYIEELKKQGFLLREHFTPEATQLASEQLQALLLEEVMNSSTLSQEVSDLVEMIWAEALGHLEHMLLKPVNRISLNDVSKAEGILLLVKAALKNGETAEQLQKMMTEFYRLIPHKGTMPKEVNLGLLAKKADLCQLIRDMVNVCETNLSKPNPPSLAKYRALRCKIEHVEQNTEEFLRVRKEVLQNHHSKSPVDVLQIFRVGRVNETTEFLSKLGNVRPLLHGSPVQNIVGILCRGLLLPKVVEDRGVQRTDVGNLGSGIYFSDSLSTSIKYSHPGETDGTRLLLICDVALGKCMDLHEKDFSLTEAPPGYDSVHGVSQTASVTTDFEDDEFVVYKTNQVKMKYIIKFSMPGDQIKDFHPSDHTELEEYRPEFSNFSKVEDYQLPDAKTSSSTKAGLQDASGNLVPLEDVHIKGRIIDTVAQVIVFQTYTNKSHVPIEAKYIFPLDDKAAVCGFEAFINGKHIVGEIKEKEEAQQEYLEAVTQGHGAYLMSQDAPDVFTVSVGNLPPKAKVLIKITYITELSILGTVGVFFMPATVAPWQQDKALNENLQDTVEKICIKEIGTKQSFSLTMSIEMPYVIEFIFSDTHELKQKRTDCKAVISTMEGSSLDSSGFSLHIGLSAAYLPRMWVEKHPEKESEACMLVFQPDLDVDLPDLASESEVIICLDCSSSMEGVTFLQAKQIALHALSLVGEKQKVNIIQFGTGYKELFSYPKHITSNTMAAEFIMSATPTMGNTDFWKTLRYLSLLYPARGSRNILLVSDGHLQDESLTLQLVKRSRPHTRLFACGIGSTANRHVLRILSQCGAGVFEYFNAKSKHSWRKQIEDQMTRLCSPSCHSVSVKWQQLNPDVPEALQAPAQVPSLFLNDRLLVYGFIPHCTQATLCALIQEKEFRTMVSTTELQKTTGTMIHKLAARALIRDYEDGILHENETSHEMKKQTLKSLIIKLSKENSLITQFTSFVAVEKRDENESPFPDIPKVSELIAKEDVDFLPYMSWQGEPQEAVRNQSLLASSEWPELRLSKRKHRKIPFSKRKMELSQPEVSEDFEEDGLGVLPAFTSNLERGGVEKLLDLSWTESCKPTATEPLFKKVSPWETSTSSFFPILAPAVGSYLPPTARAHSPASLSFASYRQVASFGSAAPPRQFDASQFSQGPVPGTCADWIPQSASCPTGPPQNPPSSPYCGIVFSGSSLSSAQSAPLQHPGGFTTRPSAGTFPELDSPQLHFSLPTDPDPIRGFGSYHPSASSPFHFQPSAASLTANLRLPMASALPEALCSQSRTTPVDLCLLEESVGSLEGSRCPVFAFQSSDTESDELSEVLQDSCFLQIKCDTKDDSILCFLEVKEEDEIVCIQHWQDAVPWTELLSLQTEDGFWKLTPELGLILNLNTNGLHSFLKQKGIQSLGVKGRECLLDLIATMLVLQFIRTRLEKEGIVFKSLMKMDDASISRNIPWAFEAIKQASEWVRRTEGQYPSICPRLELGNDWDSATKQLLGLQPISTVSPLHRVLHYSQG

ARTD5/PARP5a = target: T3, ARTD5/PARP5a (Homo sapiens, UniProt O95271); assay: Activity-based fluorescent assay, ARTD5; assay type: biochemical
T3 construct: made in house; host or cells: E. coli
T3 sequence (O95271 1-1327): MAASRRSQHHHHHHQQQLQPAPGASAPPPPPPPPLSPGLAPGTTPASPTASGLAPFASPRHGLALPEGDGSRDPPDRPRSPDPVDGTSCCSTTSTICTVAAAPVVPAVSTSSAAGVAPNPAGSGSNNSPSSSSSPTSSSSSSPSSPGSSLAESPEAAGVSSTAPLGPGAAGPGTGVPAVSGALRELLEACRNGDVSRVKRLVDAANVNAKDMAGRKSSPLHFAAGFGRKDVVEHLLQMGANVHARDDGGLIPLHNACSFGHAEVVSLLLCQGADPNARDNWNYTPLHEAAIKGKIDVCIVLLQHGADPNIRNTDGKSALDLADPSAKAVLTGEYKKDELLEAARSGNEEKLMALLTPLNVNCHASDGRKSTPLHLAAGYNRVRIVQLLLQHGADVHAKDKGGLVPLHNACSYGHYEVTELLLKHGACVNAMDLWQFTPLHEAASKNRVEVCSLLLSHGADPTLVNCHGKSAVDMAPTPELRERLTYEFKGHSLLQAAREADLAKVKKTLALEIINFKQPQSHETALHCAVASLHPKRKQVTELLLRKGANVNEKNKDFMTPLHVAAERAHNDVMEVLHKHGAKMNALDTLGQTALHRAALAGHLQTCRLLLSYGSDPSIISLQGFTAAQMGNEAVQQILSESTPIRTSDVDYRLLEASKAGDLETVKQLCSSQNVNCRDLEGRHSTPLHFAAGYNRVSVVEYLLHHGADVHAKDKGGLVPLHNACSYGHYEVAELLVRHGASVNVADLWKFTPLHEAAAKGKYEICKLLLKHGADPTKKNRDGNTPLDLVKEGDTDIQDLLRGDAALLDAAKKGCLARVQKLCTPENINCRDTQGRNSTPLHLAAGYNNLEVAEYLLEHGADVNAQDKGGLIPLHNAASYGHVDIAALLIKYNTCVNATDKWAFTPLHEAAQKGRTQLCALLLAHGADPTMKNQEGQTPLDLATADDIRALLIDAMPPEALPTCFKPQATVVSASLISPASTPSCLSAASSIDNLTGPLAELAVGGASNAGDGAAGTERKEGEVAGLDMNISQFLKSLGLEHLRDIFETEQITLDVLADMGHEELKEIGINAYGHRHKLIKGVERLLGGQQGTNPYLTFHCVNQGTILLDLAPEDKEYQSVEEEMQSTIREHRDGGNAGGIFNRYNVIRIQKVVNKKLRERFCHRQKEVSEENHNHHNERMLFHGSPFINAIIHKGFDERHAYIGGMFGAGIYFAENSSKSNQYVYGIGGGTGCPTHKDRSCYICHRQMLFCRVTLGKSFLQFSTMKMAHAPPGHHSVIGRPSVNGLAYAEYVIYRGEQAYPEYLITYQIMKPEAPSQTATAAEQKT

HeLa cells = assay: Cytotoxicity in HeLa cells; assay type: cell-based; settings: 10 μM
ARTD3/PARP3 [3] = target: T1, ARTD3/PARP3; assay: Differential scanning fluorimetry, ARTD3; assay type: binding; settings: read-out: ΔTm (DSF), ° C. ± STDEV
ARTD4/PARP4 [4] = target: T2, ARTD4/PARP4; assay: Differential scanning fluorimetry, ARTD4; settings: read-out: ΔTm (DSF), ° C. ± STDEV
[5] = system: HeLa cells overexpressing ARTD10; assay: Colony formation assay; assay type: cell-based; settings: control cells (ARTD10 not induced), 10 μM compound
Method: The different compounds were added as indicated with a final concentration of 10 μM. These were replenished every 48 h. (b) Quantification of the colony formation results. The data represent mean values of three independent experiments performed in duplicates with standard deviations.
The cells were grown in DMEM culture media with 10% FCS, and the plates were incubated at 37° C. with 5% CO2. After 24 h of seeding, over expression of ARTD10 was induced by adding 500 ng/ml doxycycline and the media were also supplemented with the tested compounds at 10 μM concentrations. The cells were allowed to proliferate for the next 10 days, after which they were stained with methylene blue to count the number of surviving colonies. The compounds and doxycycline were replenished every 48 h while fresh media (DMEM supplemented with 10% FCS) was added every four days.

[6] = system: HeLa cells treated with hydroxyurea; assay: DNA damage experiments with hydroxyurea; assay type: cell-based; settings: 5 μM OUL35 combined with hydroxyurea, cell confluence at 72 hours
Method: FIG. 4. […] Cell confluence is indicated at 72 hours (n=5, data present mean±SEM, n.s=not significant, *P<0.05, **P<0.01).
HeLa cells (ATCC) were grown in Dulbecco's modified Eagle's medium (DMEM, Sigma) supplemented with 10% fetal bovine serum (Lonza), 1× penicillin and streptomycin (Sigma) at 37° C. in a 5% CO2 atmosphere. 4000 cells/well were plated on 96-well plates. […] The DMSO content was kept below 0.05% in all experiments. The 96-well plates were placed in an IncuCyte ZOOM live cell imaging system (Essen BioScience) to follow the cell growth. The plates were scanned in the IncuCyte at 2 hour intervals for 72 hours. Data were analyzed by the IncuCyte Zoom software (Essen BioScience). The results are representative of three (cell growth curves) or five independent experiments (72 h end points) each done in six replicates. P values less than 0.05 were considered as significant (n.s=not statistically significant, *P<0.05, **P<0.01).

ARTD12/PARP12 = ARTD12/PARP12 (Homo sapiens, UniProt Q9H0J9); assay: biochemical
Sequence of ARTD12/PARP12 (Q9H0J9 whole entry): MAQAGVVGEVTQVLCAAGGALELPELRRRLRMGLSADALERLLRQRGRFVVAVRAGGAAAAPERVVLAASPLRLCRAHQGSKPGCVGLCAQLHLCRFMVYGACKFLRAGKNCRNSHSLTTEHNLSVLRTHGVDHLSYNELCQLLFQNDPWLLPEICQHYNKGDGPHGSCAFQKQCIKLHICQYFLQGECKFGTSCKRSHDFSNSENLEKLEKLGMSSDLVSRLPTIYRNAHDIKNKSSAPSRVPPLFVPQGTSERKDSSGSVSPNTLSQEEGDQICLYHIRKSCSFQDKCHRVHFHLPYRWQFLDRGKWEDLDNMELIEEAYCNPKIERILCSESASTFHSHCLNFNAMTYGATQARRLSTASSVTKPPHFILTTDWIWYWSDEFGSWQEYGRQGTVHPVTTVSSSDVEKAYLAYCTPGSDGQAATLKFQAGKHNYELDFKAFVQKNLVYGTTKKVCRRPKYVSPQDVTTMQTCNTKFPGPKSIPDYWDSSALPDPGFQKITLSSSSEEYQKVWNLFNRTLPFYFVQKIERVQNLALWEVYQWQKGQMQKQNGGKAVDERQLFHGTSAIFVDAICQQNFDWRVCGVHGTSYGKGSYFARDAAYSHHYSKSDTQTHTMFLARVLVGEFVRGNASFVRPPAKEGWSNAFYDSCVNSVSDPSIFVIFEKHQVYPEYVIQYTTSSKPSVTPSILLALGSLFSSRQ

ARTD6/PARP5b = target: T4, ARTD6/PARP5b (Homo sapiens, UniProt Q9H2K2); assay: Activity-based fluorescent assay, ARTD6; assay type: biochemical
T4 construct: made in house; host or cells: E. coli
T4 sequence (Q9H2K2 1-1166): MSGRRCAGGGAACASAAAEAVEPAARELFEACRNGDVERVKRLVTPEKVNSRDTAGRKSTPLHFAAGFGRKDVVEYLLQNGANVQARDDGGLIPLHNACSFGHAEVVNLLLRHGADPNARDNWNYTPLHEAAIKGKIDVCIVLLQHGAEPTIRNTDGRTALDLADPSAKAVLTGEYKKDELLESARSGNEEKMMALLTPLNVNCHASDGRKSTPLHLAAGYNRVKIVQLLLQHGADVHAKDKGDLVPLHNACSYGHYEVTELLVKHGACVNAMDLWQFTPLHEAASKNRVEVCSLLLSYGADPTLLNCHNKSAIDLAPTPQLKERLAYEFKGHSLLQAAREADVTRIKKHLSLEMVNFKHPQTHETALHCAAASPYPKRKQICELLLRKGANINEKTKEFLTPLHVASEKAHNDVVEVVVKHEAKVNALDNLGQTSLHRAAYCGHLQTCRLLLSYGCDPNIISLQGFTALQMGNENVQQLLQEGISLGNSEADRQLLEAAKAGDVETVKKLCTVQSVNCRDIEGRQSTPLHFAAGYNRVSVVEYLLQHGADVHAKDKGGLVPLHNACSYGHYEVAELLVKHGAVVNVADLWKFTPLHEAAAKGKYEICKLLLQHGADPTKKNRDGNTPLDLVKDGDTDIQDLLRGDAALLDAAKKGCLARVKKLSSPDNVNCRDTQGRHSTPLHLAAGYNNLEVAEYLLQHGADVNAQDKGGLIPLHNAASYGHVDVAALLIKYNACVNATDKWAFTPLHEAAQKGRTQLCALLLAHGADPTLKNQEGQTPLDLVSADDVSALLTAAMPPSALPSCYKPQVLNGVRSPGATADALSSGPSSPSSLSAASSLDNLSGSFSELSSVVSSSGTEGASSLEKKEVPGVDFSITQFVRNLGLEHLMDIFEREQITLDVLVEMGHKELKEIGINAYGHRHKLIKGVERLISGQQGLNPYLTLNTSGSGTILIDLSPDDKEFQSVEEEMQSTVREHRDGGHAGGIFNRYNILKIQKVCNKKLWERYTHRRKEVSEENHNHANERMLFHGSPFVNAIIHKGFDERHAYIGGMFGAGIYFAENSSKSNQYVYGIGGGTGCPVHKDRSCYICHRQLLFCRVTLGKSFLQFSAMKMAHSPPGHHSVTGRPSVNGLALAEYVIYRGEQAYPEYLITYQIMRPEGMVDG

ARTD15/PARP16 = target: T5, ARTD15/PARP16 (Homo sapiens, UniProt Q8N5Y8); assay: Differential scanning fluorimetry, ARTD15
T5 sequence (Q8N5Y8 94-279 limits assumed): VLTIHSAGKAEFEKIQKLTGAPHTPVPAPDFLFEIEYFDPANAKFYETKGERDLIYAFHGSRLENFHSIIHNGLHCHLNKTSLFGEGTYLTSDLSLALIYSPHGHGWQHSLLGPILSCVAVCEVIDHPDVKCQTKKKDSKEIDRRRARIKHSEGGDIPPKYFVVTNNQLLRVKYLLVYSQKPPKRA

ARTD7/PARP15 = target: T6, ARTD7/PARP15 (Homo sapiens, UniProt Q460N3); assay: biochemical
T6 sequence (Q460N3 1-678): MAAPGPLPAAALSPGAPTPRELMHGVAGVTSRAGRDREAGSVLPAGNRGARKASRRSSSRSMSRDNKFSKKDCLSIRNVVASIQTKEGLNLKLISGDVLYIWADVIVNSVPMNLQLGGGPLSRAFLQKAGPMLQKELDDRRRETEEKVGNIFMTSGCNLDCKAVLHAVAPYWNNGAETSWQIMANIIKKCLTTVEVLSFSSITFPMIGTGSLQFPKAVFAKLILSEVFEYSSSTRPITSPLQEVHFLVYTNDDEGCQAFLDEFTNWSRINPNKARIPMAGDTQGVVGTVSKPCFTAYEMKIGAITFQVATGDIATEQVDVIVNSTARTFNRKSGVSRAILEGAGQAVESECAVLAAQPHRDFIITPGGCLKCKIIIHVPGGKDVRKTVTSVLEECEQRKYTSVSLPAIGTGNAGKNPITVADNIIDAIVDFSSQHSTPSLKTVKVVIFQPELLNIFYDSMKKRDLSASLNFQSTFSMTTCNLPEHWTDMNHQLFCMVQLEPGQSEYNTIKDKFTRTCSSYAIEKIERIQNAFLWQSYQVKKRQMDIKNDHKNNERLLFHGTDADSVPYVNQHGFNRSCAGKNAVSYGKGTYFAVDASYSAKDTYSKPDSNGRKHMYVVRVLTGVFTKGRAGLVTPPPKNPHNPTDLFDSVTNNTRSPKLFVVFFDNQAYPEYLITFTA

For `NC(=O)c1ccc(Oc2ccc(C(N)=O)cc2)cc1` [OUL35, 4,4′-oxydibenzamide], the IC50 (ARTD3/PARP3 [1]) was over 100 µM, the IC50 (ARTD4/PARP4 [2]) was 22.6 µM and the “pIC50 ± SEM” value (ARTD4/PARP4 [2]) was 4.65 ± 0.17. The IC50 (ARTD5/PARP5a) was over 100 µM, the cytotoxic effect (HeLa cells) was “no cytotoxic effect” and the ΔTm at 100 µM (ARTD3/PARP3 [3]) was 0.09 ± 0.32 °C. For the same compound, the ΔTm at 100 µM (ARTD4/PARP4 [4]) was 0.84 ± 0.14 °C, the “toxicity in the control cells” value [5] was “not toxic to control cells” and the “sensitivity to hydroxyurea-induced DNA damage” value [6] was “more sensitive to DNA damage in the presence of OUL35”. The IC50 (ARTD12/PARP12) was over 100 µM, the IC50 (ARTD6/PARP5b) was over 100 µM and the “stabilization of catalytic domain (DSF)” value (ARTD15/PARP16; 100 μM OUL35) was “stabilized the catalytic domains”. For the same compound, the ΔTm at 100 µM (ARTD15/PARP16; read-out: ΔTm (DSF), ° C. ± STDEV) was 2.45 ± 0.11 °C and the IC50 (ARTD7/PARP15) was over 20 µM.
